Results: patent publication US12440567B2, “Aqueous antibody formulation stabilized by antioxidants for parenteral administration” (AMGEN INC., priority 2007, dated 2025)

Tests used:
[1] = PABA: doses as high as 12 grams per day; cited from earlier work
[2] = Color change of the antioxidant upon light; type: physicochemical
Description: P-amino benzoic acid (PABA) has a relatively powerful antioxidant effect.

Antibody A (IgG1) = assay: SEC-HPLC aggregation of Antibody A (IgG1) after UV-B exposure; type: physicochemical
Protocol: The SEC-HPLC conditions were as follows: a G3000 TOSOH SWXL column was used and the flowrate was set at 0.5 mL/min. […] For both IgG1 and IgG2, the mobile phase was 80 mM sodium phosphate, 300 mM sodium perchlorate, 10% isopropanol, pH 7.2, and each sample was run for 45 minutes.
For FIG. 5, the anti-streptavidin formulation was prepared having the following characteristics: 1 mg/mL anti-streptavidin mAb (IgG2), 10 mM sodium acetate, 5% sorbitol, and pH 5.00. For FIG. 6, the Antibody A formulation was prepared having the following characteristics: 1 mg/mL Antibody A (IgG1), 10 mM sodium acetate, 9% sucrose, and pH 5.20.

[3] = cited from earlier work
[4] = tested on: Antibody B binding to protein A; assay: Binding of Antibody B to protein A after UV-B exposure of the formulation; details: 20 mM additive; pH 6.90 phosphate buffer; 0-24 hours UV-B
Protocol: For the examples below involving exposure to UVB radiation, each sample was exposed to UVB light (λ≈302 nm) for varying times, using a UVP 8W model UVLMS-38 lamp at 4° C. The formulations were then analyzed using size exclusion chromatography high pressure liquid chromatography (SEC-HPLC). Aggregation (measured via SEC-HPLC analysis) and binding (measured using CM5 gold sensor chips) were measured to determine the effect of the antioxidant on aggregation and bioactivity of the therapeutic protein.
The binding activity of therapeutic protein to a ligand (e.g. to an antibody or binding partner, or, in cases where the therapeutic was an antibody, binding activity to the specific target antigen or to protein A) was determined as follows. […] The therapeutic protein-binding ligand of interest was injected until the desired immobilization level was achieved (above 5000 response units). Three different therapeutic protein-binding ligands were measured—Antibody A's target antigen, Protein A, and D11 (an antibody that binds to erythropoietin). […] The remaining activated groups were blocked with 1.0 M ethanolamine-HCl, pH 8.5.
A standard curve was prepared by using native forms of the therapeutic protein of interest. Native forms of the therapeutic protein were diluted in HBS-EP buffer (pH 7.4) to concentrations between 1 and 5 μg/mL, and then injected on the column, prepared as described above to obtain a standard curve. At the end of each sample run, regeneration buffer was used to wash away any bound therapeutic protein in preparation for subsequent injections.
Various UV-stressed antibody formulations were also diluted in HBS-EP buffer (pH 7.4) to a concentration within the standard curve region, and injected to quantitate the loss of bioactivity to its respective ligand-binding partner.

Antibody A [5] = assay: Discoloration (yellowing) of Antibody A formulations after UV-B exposure; type: physicochemical; details: 10 mM additive alone; UV-B light 24 hours
Description: Discoloration can be assessed visually or by measurement of absorbance at a specific wavelength.
Proteins may also become yellow in color following exposure to UV light.
Pyridoxine is another water soluble B-vitamin (B6) which was studied as a possible antioxidant for preventing protein aggregation caused by UV-B exposure.

EPO = details: 10 mM additive, 0.06% H2O2, 24 hours, room temperature
Protocol: An exemplary protocol for Met-54 oxidation and peroxide assay is as follows. 0.6% hydrogen peroxide is added to 20 mM sodium phosphate solution containing 0.336 m/mL erythropoietin (EPO). Following 24 hours incubation at room temperature, 1 μg of the enzyme catalase is added to quench the excess hydrogen peroxide. 10 μL of 1M Tris solution pH 8.0 is added to 90 μL of EPO solution followed by addition of 2 μL of a 1 mg/mL trypsin solution. Samples are incubated overnight at room temperature. Peptides are separated using reverse phase HPLC (RP-HPLC). Peptides are identified by mass spectrometry (LC-MS). % Met-54 oxidation is calculated using peak areas determined by integration of UV chromatogram from RP-HPLC

Antibody A [6] = details: 400 mM proline; 1% H2O2, 2 weeks
Protocol: Extreme conditions designed to greatly increase free radical generation include exposure to UVA and/or UVB light at 4° C. to 25° C. for 0.5 to 24 hours, or exposure to a 1% solution of hydrogen peroxide at 25° C. for 2 weeks, or exposure to 0.2 mM Fe-EDTA, 0.3% H2O2, and 1 mM ascorbate for 2 hours or longer at 37° C. Samples may alternatively be exposed to light providing an overall illumination of not less than 1.2 million lux hours and an integrated near UV energy of not less than 200 watt hours/square meter.

SMILES: Nc1ccc(C(=O)O)cc1 [PABA, P-amino benzoic acid]
- toxicity in humans [1]: without significant toxicity
- color change upon light [2]: changes to an orange-brown color upon light
- aggregation of Antibody A (SEC-HPLC) (Antibody A (IgG1); 20 mM PABA, Antibody A 1 mg/mL pH 5.00, UV 1, 2, or 3 hours): able to significantly reduce the amount of aggregation

SMILES: Cc1ncc(C[n+]2csc(CCO)c2C)c(N)n1 [Thiamine, thiamine]
- solubility [3]: more soluble than the cinnamic acids or the benzoic acid derivatives
- toxicity in humans [1]: no known toxicity
- aggregation of Antibody A (SEC-HPLC) (Antibody A (IgG1); thiamine as low as 5 mM, Antibody A 3 mg/mL, UV-B 4 hours): able to significantly inhibit Antibody A aggregation

SMILES: CSCC[C@H](N)C(=O)O [methionine]
- binding of Antibody B to protein A after UV-B exposure [4]: not able to prevent this UV-B induced degradation
- yellowing of Antibody A formulation (Antibody A [5]): significant yellowing
- amount of Met-54 oxidation (EPO): able to reduce the amount of EPO oxidation

SMILES: O=C(O)[C@@H]1CCCN1 [proline]
- prevention of Antibody A aggregation caused by peroxide (Antibody A [6]): stronger effect
- protection of Antibody A from UV-B induced degradation (aggregation) (Antibody A (IgG1); 200 mM proline, Antibody A 1 mg/mL pH 5.00, UV 15 minutes): weak effect
